Source: US9668482B1, “Fused heterocyclic compound and pest control application thereof” (Sumitomo Chemical Company, Limited, priority 2014, dated 2017)

What was measured:
Format in all cases: in vivo
[1] = tested on: American cockroaches (Periplaneta americana); assay: Test Example 14: American cockroach, topical application, comparison with compound 112; conditions: 1.0 μL topical, 7 days after treatment
Method: The compound 112 (hereinafter, referred to as “compound 112”), described in Table 40 of WO 2013/018928 pamphlet, and the present compound 1 were dissolved in acetone and then the acetone solutions of the designated concentration were prepared.
(§1) A droplet (1.0 μL) of the solution was topically applied onto the ventral prothorax of each female American cockroaches (Periplaneta americana). Then, the treated individuals were transferred to a clean polyethylene cup (bottom diameter: 12 cm, height: 10 cm) with some food and water. Each treatment consisted of 2 replications of 5 roaches/polyethylene cup. The mortality was determined on 7 days after treatment at 25° C. Mortality of insects (%)=(Number of dead insects/Number of tested insects)×100

[2] = tested on: American cockroaches (Periplaneta americana); assay: Test Example 13: American cockroach, topical application of 10% w/v acetone solution; conditions: 1.0 μL topical on ventral prothorax, females, 7 days, 25° C.
Method: The present compounds 1 and 2 were dissolved in acetone and then the 10% w/v acetone solutions were prepared.
as §1, with “cockroaches/polyethylene” for “roaches/polyethylene”

[3] = tested on: German cockroach (Blattella germanica); assay: Test Example 9: German cockroach, treated filter paper with sucrose bait; conditions: 500 ppm, 0.7 mL on filter paper, male adults, after 6 days
Method: Each of the present compounds 1 to 3, 5, 7, and 13 was made to a formulation according to the Formulation example 5 and was then diluted with water so that the active ingredient concentration was set to 500 ppm to prepare the diluted solution. The bottom of the polyethylene cup having 5.5 cm diameter was matted with the same size of a filter paper, and 0.7 mL of the diluted solution was added dropwise to the filter paper and 30 mg sucrose as bait was placed in the cup uniformly. Two (2) heads of male adult German cockroach (Blattella germanica) were released into the polyethylene cup and the cup was covered with the lid. After 6 days, the life and death of German cockroach was examined and the number of died insects was counted and the mortality of insects was calculated by the following equation. Mortality of insects (%)=(Number of dead insects/Number of tested insects)×100

[4] = tested on: housefly (Musca domestica); assay: Test Example 8: housefly, treated filter paper with sucrose bait; conditions: 500 ppm, 0.7 mL on filter paper, female adults, after 24 hours
Method: Each of the present compounds 1 to 3, 5, 7, 8, 11, 13 to 16, 21 and 22 was made to a formulation according to the Formulation example 5 and was then diluted with water so that the active ingredient concentration was set to 500 ppm to prepare the diluted solution. The bottom of the polyethylene cup having 5.5 cm diameter was matted with the same size of a filter paper, and 0.7 mL of the diluted solution was added dropwise to the filter paper and 30 mg sucrose as bait was placed in the cup uniformly. Ten (10) heads of female adult housefly (Musca domestica) were released into the polyethylene cup and the cup was covered with the lid. After 24 hours, the life and death of housefly was examined and the number of died insects was counted and the mortality of insects was calculated by the following equation. Mortality of insects (%)=(Number of dead insects/Number of tested insects)×100

Structure (SMILES): CCS(=O)(=O)c1cc(-c2ncccn2)cnc1-c1nc2cc(C(F)(F)F)cnc2n1C [Compound 112]
- Morality (%) ([1]; concentration 2 w/v%): 70%
- Morality (%) ([1]; concentration 4 w/v%): 100%

Structure (SMILES): CCS(=O)(=O)c1ccc(-n2cnc(Cl)n2)nc1-c1nc2cc(C(F)(F)F)cnc2n1C [compound 2]
- Mortality of insects [2]: 100%

Structure (SMILES): CCS(=O)(=O)c1ccc(-n2cnc(C(F)(F)F)n2)nc1-c1nc2cc(C(F)(F)F)cnc2n1C [compound 5]
- Mortality of insects [3]: 100%
- Mortality of insects [4]: 100%

Structure (SMILES): CCS(=O)(=O)c1ccc(-n2cnc(SC)n2)nc1-c1nc2cc(C(F)(F)F)cnc2n1C [compound 7]
- Mortality of insects [3]: 100%
- Mortality of insects [4]: 100%

Structure (SMILES): CCS(=O)(=O)c1ccc(-n2cnc(S(C)(=O)=O)n2)nc1-c1nc2cc(C(F)(F)F)cnc2n1C [compound 8]
- Mortality of insects [4]: 100%

Structure (SMILES): CCS(=O)(=O)c1ccc(-n2cnc(C(=O)OC)n2)nc1-c1nc2cc(C(F)(F)F)cnc2n1C [compound 11]
- Mortality of insects [4]: 100%

Structure (SMILES): CCSc1ccc(-n2cncn2)nc1-c1nc2cc(C(F)(F)F)cnc2n1C [compound 13]
- Mortality of insects [3]: 100%

Structure (SMILES): CC[S+]([O-])c1ccc(-n2cnc(C(F)(F)F)n2)nc1-c1nc2cc(C(F)(F)F)cnc2n1C (stereo not drawn) [compound 21]
- Mortality of insects [4]: 100%

Structure (SMILES): CC[S+]([O-])c1ccc(-n2cnc(SC)n2)nc1-c1nc2cc(C(F)(F)F)cnc2n1C (stereo not drawn) [compound 22]
- Mortality of insects [4]: 100%
